Reference: patent publication US20060069132A1, “Azolecarboxamide herbicides” (priority 2004, published 2006)

Assays:
barnyardgrass [1] = assay: Test B pre-/postemergence herbicide test; assay type: in vivo, Echinochloa crus-galli; conditions: for Barnyardgrass plant response rating: postemergence, scale 0 (no effect) to 100 (complete control)
How it was run: (§1)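 Seeds were planted and treated preemergence with compounds formulated in a non-phytotoxic solvent mixture containing surfactant, while plants at the 1- to 4-leaf stage (2 to 18 cm) received postemergence sprays. Flooded paddy plants were grown to the 2-leaf stage. After 13 to 15 days in a greenhouse, injury was visually rated 0–100 against untreated controls.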

Surinam grass = assay: Test B pre-/postemergence herbicide test; assay type: in vivo, Urochloa decumbens; conditions: for Surinam Grass plant response rating: postemergence
How it was run: (§2)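 Test chemicals in a non-phytotoxic solvent mixture with surfactant were applied preemergence to seeded species and postemergence to plants 2-18 cm tall (1- to 4-leaf stage); rice and barnyardgrass were also tested in a flooded paddy at the 2-leaf stage. Visual rating versus controls after 13-15 days in greenhouse, scale 0 (no effect) to 100 (complete control).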

cocklebur = assay: Test B pre-/postemergence herbicide test; assay type: in vivo, Xanthium strumarium; conditions: for Cocklebur plant response rating: postemergence, scale 0 (no effect) to 100 (complete control)
How it was run: as §1

corn = assay: Test B pre-/postemergence herbicide test; assay type: in vivo, Zea mays; conditions: for Corn plant response rating: postemergence
How it was run: as §2

large crabgrass = assay: Test B pre-/postemergence herbicide test; assay type: in vivo, Digitaria sanguinalis; conditions: for Crabgrass, Large plant response rating: postemergence
How it was run: as §2

giant foxtail = assay: Test B pre-/postemergence herbicide test; assay type: in vivo, Setaria faberi; conditions: for Foxtail, Giant plant response rating: postemergence
How it was run: as §2

lambsquarters = assay: Test B pre-/postemergence herbicide test; assay type: in vivo, Chenopodium album; conditions: for Lambsquarters plant response rating: postemergence
How it was run: as §2

morningglory = assay: Test B pre-/postemergence herbicide test; assay type: in vivo, Ipomoea coccinea; conditions: for Morningglory plant response rating: postemergence
How it was run: as §1

pigweed = assay: Test B pre-/postemergence herbicide test; assay type: in vivo, Amaranthus retroflexus; conditions: for Pigweed plant response rating: postemergence
How it was run: as §2

rice [2] = assay: Test B pre-/postemergence herbicide test; assay type: in vivo, Oryza sativa; conditions: 0 = no effect, 100 = complete control, preemergence
How it was run: as §2

velvetleaf = assay: Test B pre-/postemergence herbicide test; assay type: in vivo, Abutilon theophrasti; conditions: for Velvetleaf plant response rating: postemergence
How it was run: as §2

blackgrass = assay: Test B postemergence herbicide test; assay type: in vivo, Alopecurus myosuroides; conditions: postemergence, visual rating, scale 0 (no effect) to 100 (complete control)
How it was run: (§3)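 Postemergence plants were sprayed with formulated test chemicals at 2 to 18 cm height (1- to 4-leaf stage); paddy species were grown to the 2-leaf stage. After 13 to 15 days in a greenhouse, injury was rated visually against untreated controls on a 0–100 scale (0 = no effect, 100 = complete control).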

wheat = assay: Test B postemergence herbicide test; assay type: in vivo, Triticum aestivum; parameters: key to Wheat plant response rating: 0 = no effect, 100 = complete control; conditions: postemergence
How it was run: (§4)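 Read-out: visual comparison with controls, scored 0 to 100, where 100 means complete control and 0 no effect. Formulated chemicals were applied postemergence to plants 2–18 cm tall (1- to 4-leaf), or to flooded-paddy plants at the 2-leaf stage, then held 13 to 15 days under glass.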

wild oat = assay: Test B postemergence herbicide test; assay type: in vivo, Avena fatua; conditions: postemergence
How it was run: as §4

rice [3] = assay: Test B flooded paddy test; assay type: in vivo, Oryza sativa; conditions: 1000 g ai/ha, scale 0 to 100 (0 no effect, 100 complete control)
How it was run: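 Paddy species grown to the 2-leaf stage under flooding; blackgrass sprayed postemergence at 2–18 cm (1- to 4-leaf stage). Plants kept in a greenhouse for 13 to 15 days, then visually rated against controls on 0 (no effect) to 100 (complete control).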

[4] = tested on: small flower umbrella sedge; assay: Test B flooded paddy test; assay type: in vivo, Cyperus difformis; conditions: 1000 g ai/ha, scale 0 to 100 (0 no effect, 100 complete control)
How it was run: as §3

ducksalad [5] = assay: Test B flooded paddy test; assay type: in vivo, Heteranthera limosa; conditions: 1000 g ai/ha, scale 0 to 100 (0 no effect, 100 complete control)
How it was run: as §3

barnyardgrass [6] = assay: Test B flooded paddy test; assay type: in vivo, Echinochloa crus-galli; conditions: 1000 g ai/ha, scale 0 to 100 (0 no effect, 100 complete control)
How it was run: as §3

rice [7] = assay: Test C flooded paddy test; assay type: in vivo, Oryza sativa
How it was run: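 Plants were grown to the 1- to 4-leaf stage (2–18 cm) and then treated postemergence, or grown to the 2-leaf stage for the flooded paddy test. They were held in a greenhouse for 12 to 14 days and then scored by eye against controls, where 0 is no effect and 100 is complete control.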

[8] = tested on: smallflower umbrella sedge; assay: Test C flooded paddy test; assay type: in vivo, Cyperus difformis
ducksalad [9] = assay: Test C flooded paddy test; assay type: in vivo, Heteranthera limosa
barnyardgrass [10] = assay: Test C flooded paddy test; assay type: in vivo, Echinochloa crus-galli
How it was run: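 Postemergence sprays were applied to plants 2 to 18 cm tall (1- to 4-leaf stage); in the flooded paddy test, barnyardgrass was grown to the 2-leaf stage. After 12 to 14 days in a greenhouse, injury was visually rated against untreated controls on a 0–100 scale (100 = complete control).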

[11] = 125 g ai/ha, 0 = no effect, 100 = complete control, preemergence
[12] = 500 g ai/ha, visual rating, 0 = no effect, 100 = complete control, preemergence
[13] = 125 g ai/ha, visual rating, scale 0 (no effect) to 100 (complete control)
[14] = 500 g ai/ha, scale 0 to 100, 0 is no effect, 100 is complete control
[15] = 125 g ai/ha, scale 0 to 100 (0 no effect, 100 complete control)
[16] = 250 g ai/ha, scale of 0 to 100, 0 is no effect, 100 is complete control
[17] = 500 g ai/ha, visual rating after 12 to 14 days, scale 0 to 100 (0 no effect, 100 complete control)

CCn1nc(C(C)(C)C)cc1C(=O)Nc1cncc(C(=O)N2CC=CC2)c1 [Compound 260]
Barnyardgrass plant response rating (0 to 100 scale) (barnyardgrass [1]; [11]): 0
Plant response rating, Barnyardgrass (barnyardgrass [1]; [12]): 70
Barnyardgrass plant response rating (barnyardgrass [1]; 125 g ai/ha, visual rating): 0
Barnyardgrass plant response rating (barnyardgrass [1]; 500 g ai/ha, visual rating): 0
Surinam Grass plant response rating (0 to 100 scale) (Surinam grass; [11]): 0
Plant response rating, Surinam Grass (Surinam grass; [12]): 10
Surinam Grass plant response rating (Surinam grass; [13]): 0
Surinam Grass plant response rating (Surinam grass; [14]): 20
Cocklebur plant response rating (0 to 100 scale) (cocklebur; [11]): 0
Plant response rating, Cocklebur (cocklebur; [12]): 0
Cocklebur plant response rating (cocklebur; 125 g ai/ha, visual rating): 10
Cocklebur plant response rating (cocklebur; 500 g ai/ha, visual rating): 20
Corn plant response rating (0 to 100 scale) (corn; [11]): 0
Plant response rating, Corn (corn; [12]): 0
Corn plant response rating (corn; [13]): 0
Corn plant response rating (corn; [14]): 0
Crabgrass, Large plant response rating (0 to 100 scale) (large crabgrass; [11]): 0
Crabgrass, Large plant response rating (large crabgrass; [13]): 0
Crabgrass, Large plant response rating (large crabgrass; [14]): 10
Foxtail, Giant plant response rating (0 to 100 scale) (giant foxtail; [11]): 0
Plant response rating, Foxtail, Giant (giant foxtail; [12]): 30
Foxtail, Giant plant response rating (giant foxtail; [13]): 0
Foxtail, Giant plant response rating (giant foxtail; [14]): 0
Plant response rating, Lambsquarters (lambsquarters; [12]): 100
Lambsquarters plant response rating (lambsquarters; [13]): 10
Lambsquarters plant response rating (lambsquarters; [14]): 30
Morningglory plant response rating (0 to 100 scale) (morningglory; [11]): 0
Plant response rating, Morningglory (morningglory; [12]): 0
Morningglory plant response rating (morningglory; [13]): 0
Morningglory plant response rating (morningglory; [14]): 10
Plant response rating, Pigweed (pigweed; [12]): 100
Pigweed plant response rating (pigweed; [13]): 20
Pigweed plant response rating (pigweed; [14]): 70
Rice plant response rating (0 to 100 scale) (rice [2]; 125 g ai/ha): 0
Plant response rating, Rice (rice [2]; 500 g ai/ha, visual rating): 30
Velvetleaf plant response rating (0 to 100 scale) (velvetleaf; [11]): 0
Plant response rating, Velvetleaf (velvetleaf; [12]): 10
Velvetleaf plant response rating (velvetleaf; [13]): 0
Velvetleaf plant response rating (velvetleaf; [14]): 20
Blackgrass plant response rating (blackgrass; 125 g ai/ha): 10
Blackgrass plant response rating (blackgrass; 500 g ai/ha): 10
Wheat plant response rating (wheat; [13]): 20
Wheat plant response rating (wheat; [14]): 40
Oat, Wild plant response rating (wild oat; [13]): 20
Oat, Wild plant response rating (wild oat; [14]): 30
Rice plant response rating (rice [3]): 70
Sedge, Umbrella plant response rating [4]: 70
Ducksalad plant response rating (ducksalad [5]): 90
Barnyardgrass plant response rating (barnyardgrass [6]): 60
Rice plant response rating (rice [7]; 62 g ai/ha, scale 0 to 100): 0
Rice plant response rating (rice [7]; [15]): 0
Rice plant response rating (rice [7]; [16]): 0
Plant response rating, Rice (rice [7]; [17]): 15
Sedge, Umbrella plant response rating ([8]; 62 g ai/ha, scale 0 to 100): 0
Sedge, Umbrella plant response rating [8, 15]: 40
Sedge, Umbrella plant response rating [8, 16]: 65
Plant response rating, Sedge, Umbrella [8, 17]: 65
Ducksalad plant response rating (ducksalad [9]; 62 g ai/ha, scale 0 to 100): 0
Ducksalad plant response rating (ducksalad [9]; [15]): 70
Ducksalad plant response rating (ducksalad [9]; [16]): 75
Plant response rating, Ducksalad (ducksalad [9]; [17]): 85
Barnyardgrass plant response rating (barnyardgrass [10]; 62 g ai/ha, scale 0 to 100 (0 no effect, 100 complete control)): 0
Barnyardgrass plant response rating (barnyardgrass [10]; [15]): 0
Barnyardgrass plant response rating (barnyardgrass [10]; [16]): 20
Plant response rating, Barnyardgrass (barnyardgrass [10]; [17]): 35
